Earlier results as cited in patent EP0893486B1, “Acrylic compositions for consolidation of soils and concrete in general” (Draco Italiana S.p.A., priority 1997, dated 1999).

Conditions: classification of the single monomer

| Molecule | classified as |
| --- | --- |
| C=C(C)C(=O)OCCO [2-hydroxyethylmethacrylate] | irritants |
| C=C(C)C(=O)OCC(CC)(COC(=O)C(=C)C)COC(=O)C(=C)C [trimethylolpropanetrimethacrylate] | irritants |
| polyethyleneglycol-400-diacrylate | irritants |
| polyethyleneglycolmonoacrylate | irritants |
| trimethylolpropanetriacrylate-ethoxylate | irritants |
| C=CC(=O)OCC(CC)(COCC(CC)(COC(=O)C=C)COC(=O)C=C)COC(=O)C=C [Ditrimetbylolpropanetetraacrylate] | irritants |
| polyethyleneglycol-600-dimethacrylate | irritants |
